Experiment: xn = mol fraction of the nth substance listed
Details: 100 kPa

O=C1CCCCC1 + CCCC[n+]1ccn(C)c1.F[B-](F)(F)F
speed of sound [m/s]
Details | 293.15 K | 298.15 K | 303.15 K | 308.15 K
x2 = 0 | 1431.2 | – | 1395.1 | 1375.1
x2 = 0.0736 | 1425.9 | 1409.5 | 1390.7 | –
x2 = 0.1128 | 1424.7 | 1408.5 | – | –
x2 = 0.1597 | 1424.6 | – | 1390.2 | 1371.2
x2 = 0.2045 | – | 1409.9 | 1391.8 | 1373
x2 = 0.2459 | – | 1412.1 | 1394.2 | 1375.6
x2 = 0.2933 | 1431.3 | – | – | 1379.7
x2 = 0.3481 | 1436.6 | 1421.1 | 1403.7 | –
x2 = 0.3956 | 1442.2 | 1426.9 | 1409.8 | 1392
x2 = 0.4429 | 1448.6 | 1433.5 | 1416.7 | 1399.3
x2 = 0.4937 | 1456.5 | 1441.6 | 1425.2 | 1408.1
x2 = 0.5344 | 1463.5 | 1448.7 | 1432.6 | 1415.8
x2 = 0.5938 | 1474.6 | 1460.1 | 1444.5 | 1428.2
x2 = 0.6557 | 1487.3 | 1473.1 | – | 1442.4
x2 = 0.7028 | 1497.8 | 1483.8 | 1469.3 | 1454
x2 = 0.7409 | 1506.7 | 1493 | – | –
x2 = 0.7973 | 1520.6 | 1507.2 | 1493.7 | 1479.5
x2 = 0.8564 | 1536.1 | 1523 | 1510.2 | 1496.7
x2 = 0.9047 | 1549.6 | 1536.7 | 1524.4 | –

CCCC[n+]1ccn(C)c1.F[B-](F)(F)F + O=C1CCCCC1
x1 = 1
Details | speed of sound [m/s]
293.15 K | 1578.1
298.15 K | 1565.5
303.15 K | 1554.1
308.15 K | 1542.3

Reference: a compilation of properties of binary mixtures (doi:10.1007/s10973-016-5820-0)
